≈ marks a conversion by molar mass, not a printed value.
Key:
[1] = Solubility in aqueous solution (deionized, distilled water); assay type: physicochemical; details: kinetic from dmso stock, 1% DMSO, read-out: Aqueous Solubility H2O
Experimental: (§1) For testing compound solubility in phosphate buffered saline (PBS), compound stock solutions were prepared at 10 mM in 100% DMSO. For testing in aqueous solution, the phosphate buffer was replaced with deionized, distilled water. Eleven grams Na2HPO4 (FW: 141.96 g/mol) and 3.5 g NaH2PO4.2H2O (FW: 156.03 g/mol) was added to 1 L Milli-Q water and adjusted to a pH to 7.4 with phosphoric acid or sodium hydroxide. For incubation, media were preheated to 37° C. Eight μL aliquots of reference and test compound stock solutions (10 mM) were added into 792 μL of 100 mM phosphate buffer (pH 7.4). The final DMSO concentration was 1%. Sample tubes were shaken for 1 hour at 1000 rpm at room temperature.
(§2) The calibration curve was prepared with 300-μM spiking solution (SS) in MeOH:acetonitrile (4:1). Six μL of 10 mM compound was added in 194 μL MeOH/acetonitrile (4:1). Samples were centrifuged for 10 minutes at 12,000 rpm to precipitate undissolved particles. Supernatants were transferred to a new tube or plate and dilute 10-fold and 100-fold with 100 mM buffer. Samples were prepared for LC-MS/MS analysis by adding 5 μL each sample (undiluted, 10-fold diluted, and 100-fold diluted) and 5 μL of standard curve samples to 95 μL of acetonitrile (containing internal standard).

[2] = Metabolic stability in human liver microsomal preparation; assay type: in vitro ADME; details: pH 7.4, human liver microsomes, NADPH, 37° C.; for half-life at 1 μM: 0-45 min, read-out: Metabolic Stability t1/2
Experimental: For evaluating the metabolic stability in human liver microsomal preparation, three buffers were prepared. Buffer A had 1.0 L of 0.1 M monobasic potassium phosphate buffer containing 1.0 mM EDTA. Buffer B had 1.0 L of 0.1 M dibasic potassium phosphate buffer containing 1.0 mM EDTA. Buffer C had 0.1 M potassium phosphate buffer, 1.0 mM EDTA, adjusted to a pH 7.4 via titrating 700 mL buffer B with buffer A. Reference compound (ketanserin) and test compounds spiking solutions (500 μM) were prepared by adding 10 μL of 10 mM DMSO stock compound solution into 190 μL acetonitrile. A volume of 1.5 μL 500 μM spiking solution and 18.75 μL 20 mg/mL human liver microsomes were added into 479.75 μL of Buffer C on ice. A stock solution of 6 mM NADPH was prepared by dissolving NADPH into Buffer C.
Wells on an assay plate were iced and filled with 30 μL 1.5-μM spiking solution containing 0.75 mg/mL microsomes solution and designated for different timepoints (0-, 5-, 15-, 30-, 45-min). For the 0-min timepoint, 135 μL acetonitrile containing internal standard were added followed by 15 μL of NADPH stock solution (6 mM). All other plates were preincubated at 37° C. for 5 minutes and 15 μL NADPH stock solution (6 mM) were added to the plates to start the reaction. At 5-min, 15-min, 30-min, and 45-min, 135 μL acetonitrile containing internal standard were added to the wells of corresponding plates, respectively, to stop the reaction. After quenching, the plates were shaken on the vibrator (IKA, MTS 2/4) for 10 min at 600 rpm and then centrifuged at 5594×g for 15 minutes (Thermo Multifuge×3R). Fifty μL supernatant from each well were transported into a 96-well sample plate containing 50 μL of ultra-pure water (Millipore, ZMQS50F01) for LC/MS analysis.

[3] = Stability in human plasma; assay type: in vitro ADME; details: read-out: Plasma Stability T1/2
Experimental: Stability in Human Plasma.
Stock compounds were prepared for testing the stability in human plasma. First, 0.05 M sodium phosphate and 0.07 M NaCl buffer, pH 7.4, were pre-heated. In deionized water, 14.505 g/L Na2HPO 12H2O, 1.483 g/L NaH2PO4.2H2O and 4.095 g/L NaCl were dissolved. The basic solution was titrated with the phosphoric acid to pH 7.40. Frozen plasma was quickly thawed at 37° C. The plasma was centrifuged at 3,000 rpm for 8 minutes to remove clots, then pipetted and pooled as the plasma stock for the experiment. Only plasma within the range of pH 7.4 to pH 8 was used. If higher than pH 8, the plasma was discarded. The initial pH of the plasma was not adjusted to pH 7.4 with acid or by bubbling with carbon dioxide. By using a 5% carbon dioxide incubator and PBS buffer, a pH of 7.4 will be reached after the 4-hour equilibrium dialysis time. Plasma was iced until use.
Spiking solution A with 0.5 mM testing compounds was prepared by adding 10 μL of 10 mM test compounds stock solution to 190 μL DMSO. Spiking solution B with 0.02 mM testing compound was prepared by adding 40 μL of spiking solution A to 960 μL of […] sodium phosphate buffer with 0.5% BSA. The plasma and spiking solution B were prewarmed at 37° C. for 5 minutes. Ten μL of pre-warmed spiking solution B was added into the wells designated for all the time points (5, 15, 30, 45, 60 minutes). For the 0-minute timepoint, 400 μL acetonitrile containing internal standard were added to the wells of 0-minute plate and then 90 μL plasma were added. For the other timepoints, 90 μL of pre-warmed plasma were added into the wells (0, 5, 15, 30, 45, 60 minutes) and the timing was started. At 5, 15, 30, 45, 60 minutes, 400 μL acetonitrile containing internal standard were added to the wells of corresponding plates, respectively, to stop the reaction. After quenching, the plates were shaken on a vibrator (IKA, MTS 2/4) for 10 minutes at 600 rpm and then centrifuged at 5594×g for 15 minutes (Thermo Multifuge×3R). Fifty μL of supernatant was transferred from each well into a 96-well sample plate containing 50 μL ultra-pure water (Millipore, ZMQS50F01) for LC/MS analysis.

[4] = Solubility in phosphate buffered saline (PBS), pH 7.4; assay type: physicochemical; details: phosphate buffer (PBS), aqueous buffer, kinetic from dmso stock; phosphate buffered saline pH 7.4, 1% DMSO, 1 hour shaking at room temperature
Experimental: as §1, §2

[5] = molecular target: recombinant full-length human hydroxyacid oxidase 1 (HAO1), the equivalent of hGOX (Homo sapiens (Human), UniProt Q9UJM8); assay: In-vitro human glycolate oxidase (hGOX) assay (Amplex red/HRP fluorescence); assay type: biochemical
Experimental: Biological Activity Assay: In-Vitro Human Glycolate Oxidase (hGOX) Assay
The in-vitro glycolate oxidase assay was performed using recombinant full-length human hydroxyacid oxidase 1 (HAO1), the equivalent of hGOX. […] Purified HAO1 was dissolved in assay buffer consisting of 10 mM NaCl, 110 mM KCl, 2 mM MgCl2, 50 mM HEPES (pH 7.4) and 0.01% Triton™ X-100.

[6] = Protein binding (plasma equilibrium dialysis); assay type: in vitro ADME; details: 5 hours at 37° C.; for fraction unbound at 5 h, 1 μM: read-out: Protein Binding Fraction Bound (converted)
Experimental: For testing protein binding of stock compounds solubilized in DMSO, spiking solutions of test and reference compounds were prepared. Solution A (0.5 mM) was prepared by adding 10 μL of 10 mM stock solution into 190 μL of DMSO. Solution B (0.02 mM) was prepared by adding 8 μL of Solution A into 192 μL of 0.05 M sodium phosphate buffer. The final DMSO concentration in Solution B was 4%.
To prepare test and reference compounds in plasma, a 96-well plate with 380 μL aliquots of plasma in the wells designed for plasma and buffer, respectively. Twenty μL of Solution B (0.02 mM of test and reference compounds) were spiked into the pre-loaded plasma in the 96-well plate. The final test concentration is 1 μM containing 0.2% DMSO.
For dialysis sample loading a plasma again buffer system was prepared by applying aliquots of 100 μL of blank dialysis buffer to the receiver side of dialysis chambers and then applying aliquots of 100 μL of the plasma spiked with test and reference compounds to the donor side of the dialysis chamber. A 25-μL aliquot of the plasma spiked with test and reference compounds was added into a 96-well sample preparation plate as T″0″ plasma samples. Aliquots were mixed with the same volume of blank buffer (50:50, volume:volume). Samples were quenched with 200 μL of acetonitrile containing internal standard. The dialysis block was covered and a shaken at 60 rpm for 5 hours at 37° C.
After a 5-hour incubation, dialyzed samples were prepared from 25-μL aliquots from both the donor and receiver sides of the dialysis apparatus into new sample preparation plates. The aliquots were mixed with same volume of opposite matrixes. The samples were quenched with 200 μL acetonitrile containing internal standard. All 0-hour and 5-hour samples were vortexed at 600 rpm for 10 min followed by centrifugation at 5594×g for 15 minutes (Thermo Multifuge×3R). Fifty μL of the supernatants were transferred to anew 96-well plate and mixed with 50 μL Milli-Q water. The sample plate was covered and frozen at −20° C. until LC/MS/MS analysis.

Chain of recombinant full-length human hydroxyacid oxidase 1 (HAO1), the equivalent of hGOX (Q9UJM8 whole entry): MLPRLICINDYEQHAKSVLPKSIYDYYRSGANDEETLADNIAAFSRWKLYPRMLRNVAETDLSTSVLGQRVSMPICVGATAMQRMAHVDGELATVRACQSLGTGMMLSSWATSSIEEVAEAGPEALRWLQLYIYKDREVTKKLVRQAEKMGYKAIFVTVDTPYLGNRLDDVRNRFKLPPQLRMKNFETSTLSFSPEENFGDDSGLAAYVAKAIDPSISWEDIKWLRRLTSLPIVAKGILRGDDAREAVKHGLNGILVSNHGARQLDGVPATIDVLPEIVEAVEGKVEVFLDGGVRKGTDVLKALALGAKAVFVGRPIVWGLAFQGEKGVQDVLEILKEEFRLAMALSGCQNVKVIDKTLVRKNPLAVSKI

Compound	solubility at 1 h [1] [µM]	CLint scaled at 1 μM [2] [mL/min/kg]	half-life at 1 μM [2] [h]	half-life at 2 μM [3] [h]	solubility at 1 h [4] [µM]	IC50 [5] [nM]	recovery at 5 h, 1 μM [6] [%]	fraction unbound at 5 h, 1 μM [6]
O=C(O)c1nn[nH]c1Oc1cccc(C2CCC2)c1 [Example I-279, 5-(3-Cyclobutylphenoxy)-1H-1,2,3-triazole-4-carboxylic acid]	111 (≈ 28.7 µg/mL)	4.98	5.82	2.61	112 (≈ 29.1 µg/mL)	32	98.2	–
CCC(CC)c1cccc(Oc2[nH]nnc2C(=O)O)c1 [Example I-276, 5-(3-(Pentan-3-yl)phenoxy)-1H-1,2,3-triazole-4-carboxylic acid]	103 (≈ 28.4 µg/mL)	5.95	4.87	3.2	109 (≈ 30 µg/mL)	23	108	0.006
O=C(O)c1[nH]nnc1Oc1ccc(Cl)c(Cl)c1 [Example I-050, 5-(3,4-Dichlorophenoxy)-1H-1,2,3-triazole-4-carboxylic acid]	102 (≈ 28 µg/mL)	2.47	11.7	2.35	120 (≈ 33 µg/mL)	12	71.2	–
CCCC(C)c1ccc(Oc2[nH]nnc2C(=O)O)cc1 (stereo not shown) [Example I-273, 5-(4-(Pentan-2-yl)phenoxy)-1H-1,2,3-triazole-4-carboxylic acid]	108 (≈ 29.7 µg/mL)	35.2	0.822	2.2	112 (≈ 30.8 µg/mL)	45	99.9	0.003
C=Cc1ccc(Oc2[nH]nnc2C(=O)O)cc1 [Example I-285, 5-(4-Vinylphenoxy)-1H-1,2,3-triazole-4-carboxylic acid]	97.6 (≈ 22.6 µg/mL)	< 0.15	> 83.3	8.02	101 (≈ 23.4 µg/mL)	38	98.8	0.012
C#Cc1cccc(Oc2[nH]nnc2C(=O)O)c1 [Example I-288, 5-(3-ethynylphenoxy)-1H-1,2,3-triazole-4-carboxylic acid]	80.6 (≈ 18.5 µg/mL)	3.11	9.31	1.96	92.4 (≈ 21.2 µg/mL)	24	110	0.025
O=C(O)c1nn[nH]c1Oc1cccc(C2CCCC2)c1 [Example I-267, 5-(3-Cyclopentylphenoxy)-1H-1,2,3-triazole-4-carboxylic acid]	82.6 (≈ 22.6 µg/mL)	< 0.15	> 83.3	1.15	79.8 (≈ 21.8 µg/mL)	35	113	–
O=C(O)c1nn[nH]c1Oc1cccc(C2CCCCC2)c1 [Example I-268, 5-(3-Cyclohexylphenoxy)-1H-1,2,3-triazole-4-carboxylic acid]	111 (≈ 31.9 µg/mL)	84.2	0.344	1.84	97.6 (≈ 28 µg/mL)	51	106	–
O=C(O)c1nn[nH]c1Oc1ccc(C2CCC2)cc1 [Example I-275, 5-(4-Cyclobutylphenoxy)-1H-1,2,3-triazole-4-carboxylic acid]	110 (≈ 28.5 µg/mL)	18.3	1.58	1.7	115 (≈ 29.8 µg/mL)	22	98.5	–
